± gives the standard deviation of the averaged measurements.
Columns and labels:
DECITABINE = compound: Nc1ncn([C@H]2C[C@H](O)[C@@H](CO)O2)c(=O)n1 [DECITABINE]; assay: surviving fraction relative to DMSO-only wells; higher = less growth inhibition; conditions: exposure time: 5 days
Method in brief: (§1)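 Log-phase tumour cell lines were seeded at 250–500 cells per well in 384-well plates. After 24 hours they were exposed continuously for five days to inhibitors at 0.5, 1, 5, 10, 50, 100, 500 and 1000 nM. Viability was read by CellTiter-Glo luminescence after 10 minutes at room temperature, and surviving fraction is luminescence normalised to the median of DMSO-only wells. Each line was screened three times and kept only if replicate Pearson r >0.7 and median Z' >0.3.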

NUTLIN3 = compound: COc1ccc(C2=N[C@@H](c3ccc(Cl)cc3)[C@@H](c3ccc(Cl)cc3)N2C(=O)N2CCNC(=O)C2)c(OC(C)C)c1 [NUTLIN3]; assay: as above; conditions: exposure time: 5 days
Method in brief: as §1

Test System | surviving fraction (DECITABINE; 0.5 nM) | surviving fraction (DECITABINE; 1 nM) | surviving fraction (DECITABINE; 5 nM) | surviving fraction (DECITABINE; 10 nM) | surviving fraction (DECITABINE; 50 nM) | surviving fraction (DECITABINE; 100 nM) | surviving fraction (DECITABINE; 500 nM) | surviving fraction (DECITABINE; 1000 nM) | surviving fraction (NUTLIN3; 0.5 nM) | surviving fraction (NUTLIN3; 1 nM) | surviving fraction (NUTLIN3; 5 nM) | surviving fraction (NUTLIN3; 10 nM) | surviving fraction (NUTLIN3; 50 nM) | surviving fraction (NUTLIN3; 100 nM) | surviving fraction (NUTLIN3; 500 nM) | surviving fraction (NUTLIN3; 1000 nM)
HMT3552 BREAST | 1.06 ± 0.029 | 1.024 ± 0.01 | 1.09 ± 0.05 | 1.02 ± 0.057 | 1.27 ± 0.029 | 1.21 ± 0.037 | 1.18 ± 0.06 | 1.14 ± 0.028 | 0.97 | 0.984 | 1 | 1 | 1.19 | 1.21 | 1.12 | 1.14
HS578T BREAST | 0.882 ± 0.16 | 0.838 ± 0.018 | 0.812 ± 0.079 | 0.837 ± 0.077 | 0.98 ± 0.071 | 0.943 ± 0.2 | 0.905 ± 0.08 | 1.02 ± 0.064 | 1.11 ± 0.067 | 0.926 ± 0.069 | 0.883 ± 0.19 | 0.8973 ± 0.0049 | 0.92 ± 0.041 | 0.936 ± 0.072 | 0.913 ± 0.14 | 0.921 ± 0.06
HMLE3 BREAST | 1.1 ± 0.049 | 1.03 ± 0.082 | 1.14 ± 0.03 | 1.14 ± 0.058 | 0.95 ± 0.12 | 0.922 ± 0.051 | 0.605 ± 0.055 | 0.551 ± 0.054 | 0.967 ± 0.059 | 0.985 ± 0.041 | 1.02 ± 0.028 | 0.996 ± 0.085 | 0.982 ± 0.046 | 0.995 ± 0.043 | 0.964 ± 0.025 | 1.02 ± 0.024
HCC70 BREAST | 1.07 ± 0.12 | 0.991 ± 0.14 | 1.1 ± 0.05 | 1.02 ± 0.092 | 0.967 ± 0.024 | 0.956 ± 0.087 | 0.844 ± 0.026 | 0.679 ± 0.076 | 1.03 ± 0.094 | 1.03 ± 0.043 | 1.02 ± 0.063 | 1.05 ± 0.087 | 1.07 ± 0.085 | 1.14 ± 0.055 | 1.04 ± 0.073 | 1.07 ± 0.084
G292 BONE | 0.958 ± 0.057 | 0.953 ± 0.026 | 0.924 ± 0.037 | 0.922 ± 0.025 | 0.711 ± 0.0099 | 0.678 ± 0.043 | 0.571 ± 0.039 | 0.543 ± 0.026 | 0.982 ± 0.028 | 0.955 ± 0.03 | 1.06 ± 0.047 | 1.05 ± 0.032 | 1.03 ± 0.044 | 0.989 ± 0.026 | 1.01 ± 0.045 | 0.979 ± 0.054
HCC38 BREAST | 1.37 ± 0.092 | 1.14 ± 0.13 | 1.13 ± 0.098 | 0.937 ± 0.044 | 0.781 ± 0.019 | 0.656 ± 0.027 | 0.441 ± 0.0081 | 0.409 ± 0.064 | 1.19 ± 0.29 | 1.23 ± 0.12 | 1.35 ± 0.062 | 1.29 ± 0.12 | 1.28 ± 0.14 | 1.28 ± 0.11 | 1.22 ± 0.22 | 1.26 ± 0.25
HS57T BREAST | 0.976 ± 0.049 | 0.99 ± 0.026 | 1.06 ± 0.027 | 0.972 ± 0.022 | 0.923 ± 0.086 | 0.904 ± 0.091 | 0.767 ± 0.045 | 0.696 ± 0.078 | 0.965 ± 0.045 | 0.991 ± 0.018 | 1.01 ± 0.045 | 1.04 ± 0.046 | 1.01 ± 0.023 | 1.12 ± 0.033 | 1.06 ± 0.027 | 1.04 ± 0.071

— the supplement of paper PMC6045584
